# Reference: patent publication US5183821A, “Method for treating leukemias using N-(2-dimethylaminoethyl)-3-amino-1,8-naphthalimide for treating leukemias and solid tumors” (priority 1991, dated 1993)
# “And” between values parts separate entries of the source, which are not always exact repeats. Identical values can stand only once. “Also recorded” adds a separate entry of the source.
# Legend:
# L-1210 Lymphoid Leukemia [1] = assay: NCI screen, L-1210 Lymphoid Leukemia, subcutaneous (summary); type: in vivo, Mouse
# From the text: The activity of the compound has been evaluated by experiments carried out under the auspices of the Division of Cancer Treatment, National Cancer Institute, employing techniques considered to be reliable indicators of chemotherapeutic utility in the treatment of forms of cancer in human patients. The details of the methodology employed in the reported experiments may be determined with reference to established NCI screening methods. In the experiments conducted by the NCI, evaluation of activity is made on the basis of appropriate parameters, such as median survival time (MST) or change in average tumor diameter (CATD)in ocular micrometer units (OMU).
# beagle dogs [2] = assay: Five daily dose dog toxicity study; type: in vivo
# Description: (§1) Preclinical toxicity studies of BIDA were completed in CD2F1 Mice, Fischer 344 rats and beagle dogs (4). The animals were injected IV with a single bolus or daily for five days.
# (§2) A preclinical toxicology study of benzisoquinolinedione (NSC-308847) was done at Springborn Institute for Bioresearch, Inc. using CD2 F1 mice, Fischer 344 rats and beagle dogs. Animals were injected intravenously on a single dose (X1) or five daily dose (X5) regimen. Bulk drug was titrated with 0.5N HCl to form a salt solution of benzisoquinolinedione at a pH of 5.0-6.5. Sterile 0.9% saline was used for diluting the dosing solutions and was used for the vehicle control animals.
# The following summarizes the major organ toxicities resulting from IV administration of benzisoquinolinedione to dogs.
# L-1210 Lymphoid leukemia [3] = assay: Experiment 7: L-1210 i.p., 10^5 cells, acid diluted with saline, male; type: in vivo, Mouse CD2 F1 (CDF1)
# From the text: Host: Mouse CD2 F1 (CDF1)
# Tumor: L-1210 Lymphoid leukemia
# Inoculum Site: Intraperitoneal
# Vehicle: Acid diluted with saline
# Treatment schedule (relative to tumor inoculation day): daily on days 1-9
# Day of evaluation (relative to tumor inoculation day): 30
# Parameter: Median survival time (MST) in days
# NCI minimal activity criteria: Percent T/C≥125
# Percent T/C: Ratio of test (T) evaluation to control (C) evaluation expressed as a percentage
# beagle dogs [4] = conditions: dog, in vivo
# From the text: To determine the source of the color, the following analyses were done: HPLC and TLC (for drug); routine urinalyses, orthotolidine reagent strip and sulfosalicylic acid/ammonium sulfate precipitation tests (for occult blood).
# Fischer 344 rats = assay: Five daily dose rat toxicity study; type: in vivo
# Description: as §1, §2
# The following summarizes the major organ toxicities resulting from IV administration of benzisoquinolinedione to rats.
# [5] = 12.0 mg/kg/day, listed as benzisoquinolinedione
smiles,measurement,setting,value
"CN(C)CCN1C(=O)c2cccc3cc(N)cc(c23)C1=O [Example 9, 1H-Benz[de]isoquinoline-1,3(2H)-dione, 5-amino-2-[2-(dimethylamino)ethyl]]",Table II evaluation,"L-1210 Lymphoid Leukemia [1]; median survival time, 16 tests, full wrapped cell: Activity substantially greater than the minimal",Activity
same,Antitumor activity in words,L-1210 Lymphoid Leukemia [1]; s.c. implanted L1210,active
same,drug-related toxicities,beagle dogs [2]; 0.38 mg/kg/day,No drug-related toxicities were found
same,Mortality / lethality,beagle dogs [2]; 0.38 mg/kg/day (1/10MELD10),0/4
same,drug-related toxicities,beagle dogs [2]; 3.8 mg/kg/day,No drug-related toxicities were found
same,Mortality / lethality,beagle dogs [2]; 3.8 mg/kg/day (MELD10),0/4
same,gross or microscopic lesions,beagle dogs [2]; 11.4 mg/kg/day,No drug-related gross or microscopic lesions were found
same,Mortality / lethality,"beagle dogs [2]; 11.4 mg/kg/day (3XMELD10), listed as BIDA",Neither the single injection of 2×MELD10 or the daily×5 injection of the 3×MELD10 caused lethality
same,Mortality / lethality,"beagle dogs [2]; 11.4 mg/kg/day (3XMELD10), listed as benzisoquinolinedione",no deaths and 0/4
same,leukopenia (leukocyte count),"beagle dogs [2]; 11.4 mg/kg/day, all four dogs",3.5-6.6 ×10^3 /cmm
same,Nervous system signs,"beagle dogs [2]; 11.4 mg/kg/day, days 2 and/or 3",Three of four dogs showed signs indicating nervous system toxicity
same,BUN,"beagle dogs [2]; 11.4 mg/kg/day, one dog, day 8",27 mg/dL
same,"decrease in hemoglobin, hematocrit and red blood cells below pretest values","beagle dogs [2]; 11.4 mg/kg/day, two dogs, day 4 or 8",15-24%
same,"toxicity summary, dogs","beagle dogs [2]; five daily doses i.v., listed as benzisoquinolinedione","reversible toxicity to the hematopoietic system, kidney and liver; also recorded: Signs indicative of pain and/or neurotoxicity; also recorded: No drug-related gross or microscopic lesions"
same,Median survival time (MST),L-1210 Lymphoid leukemia [3]; 1.00 mg/kg i.p.,10.4 days
same,Percent T/C,L-1210 Lymphoid leukemia [3]; 1.00 mg/kg i.p.,99%
same,Median survival time (MST),L-1210 Lymphoid leukemia [3]; 2.00 mg/kg i.p.,10.2 days
same,Percent T/C,L-1210 Lymphoid leukemia [3]; 2.00 mg/kg i.p.,97%
same,Median survival time (MST),L-1210 Lymphoid leukemia [3]; 4.00 mg/kg i.p.,10.4 days
same,Percent T/C,L-1210 Lymphoid leukemia [3]; 4.00 mg/kg i.p.,99%
same,Median survival time (MST),L-1210 Lymphoid leukemia [3]; 8.00 mg/kg i.p.,12.4 days
same,Percent T/C,L-1210 Lymphoid leukemia [3]; 8.00 mg/kg i.p.,118%
same,Median survival time (MST),L-1210 Lymphoid leukemia [3]; 16.00 mg/kg i.p.,11.8 days
same,Percent T/C,L-1210 Lymphoid leukemia [3]; 16.00 mg/kg i.p.,112%
same,Median survival time (MST),L-1210 Lymphoid leukemia [3]; 32.00 mg/kg i.p.,8.0 days
same,blood in urine,beagle dogs [4],the presence of blood was negligible
same,gross or microscopic lesions,Fischer 344 rats; 6.0 mg/kg,No drug-related gross or microscopic lesions were found
same,Mortality / lethality,Fischer 344 rats; 6.0 mg/kg/day (1/2MELD10),0/20
same,Hematologic findings,"Fischer 344 rats; 6.0 mg/kg, listed as benzisoquinolinedione","Female rats showed moderate increases in reticulocytes on days 15 and 22, followed by a moderate decrease on day 36; also recorded: The males were not affected"
same,Mortality / lethality,Fischer 344 rats; 12.0 mg/kg/day (MELD10),0/20
same,Reproductive findings,"Fischer 344 rats; 12.0 mg/kg/day, day 36, listed as benzisoquinolinedione",slight decrease in testicular weight on day 36; also recorded: moderate testicular atrophy in all males
same,"mild to moderate diffuse bone marrow atrophy, incidence","Fischer 344 rats; 12.0 mg/kg/day, females, day 8",4/5
same,Hematologic findings,Fischer 344 rats; [5],"Slight decreases in hemoglobin, hematocrit and red blood cells were seen in female rats on day 8; also recorded: moderate reticulocytopenia; also recorded: male rats had a mild increase in reticulocytes on day 22; also recorded: Females had slight to mild leukocytosis on days 15 and 22; also recorded: The males had a moderate increase in WBC only on day 15; also recorded: No microscopic lesions were seen on day 36 in either sex"
same,Integumentary findings,Fischer 344 rats; [5],dry yellowish-white scaly tails; also recorded: microscopic evaluation did not show any tail lesions
same,"mild thymic atrophy, incidence","Fischer 344 rats; 12.0 mg/kg/day, males, day 8",1/5
same,"mild to moderate diffuse bone marrow atrophy, incidence","Fischer 344 rats; 12.0 mg/kg/day, males, day 8",4/5
same,Mortality / lethality,"Fischer 344 rats; 24.0 mg/kg/day (2XMELD10), listed as benzisoquinolinedione",5/20 and Two females were found dead and three females were sacrificed
same,"marked testicular atrophy, incidence","Fischer 344 rats; 24.0 mg/kg/day, day 36",2/5
same,"moderate testicular atrophy, incidence","Fischer 344 rats; 24.0 mg/kg/day, day 36",2/5
same,"severe testicular atrophy, incidence","Fischer 344 rats; 24.0 mg/kg/day, day 36",1/5
same,"moderate to marked spleen atrophy, incidence","Fischer 344 rats; 24.0 mg/kg/day, females",3/10
same,"marked jejunal epithelial degeneration, incidence","Fischer 344 rats; 24.0 mg/kg/day, females, day 8",5/10
same,"marked necrosis of mesenteric lymph node, incidence","Fischer 344 rats; 24.0 mg/kg/day, females, day 8",1/10
same,"mild atrophy of mesenteric lymph node, incidence","Fischer 344 rats; 24.0 mg/kg/day, females, day 8",1/10
same,"mild to marked duodenal epithelial degeneration, incidence","Fischer 344 rats; 24.0 mg/kg/day, females, day 8",5/10
same,"mild to marked duodenal epithelial necrosis, incidence","Fischer 344 rats; 24.0 mg/kg/day, females, day 8",7/10
